As usually defined, the AC50 is the concentration at which the activity in the assay is half-maximal. One may read the IC50 as the point on the concentration scale where inhibition reaches its midpoint.

Data on 8 molecules can be found in ChEMBL document CHEMBL1201862, “PubChem BioAssay data set” (2004).

Activity calls are given as the source filed them.

Assay [1] concerns HeLa. In words: HeLa cell cytotoxicity, dose response, cytotoxicity control for MITF activator project, CellTiter-Glo luminescence, cherry-pick samples (AID 540259). The format is functional, cell-based. The following applies: Homo sapiens. (In general: In ATP-based viability assays light output follows the ATP content of the culture.)
For assay [2], the system named is Escherichia coli. In words: microbe, parasite or virus in culture.
In assay [3] the target is T1, Nucleotide-binding oligomerization domain-containing protein 1 (Homo sapiens, UniProt Q9Y239).
T1 sequence (Q9Y239 whole entry): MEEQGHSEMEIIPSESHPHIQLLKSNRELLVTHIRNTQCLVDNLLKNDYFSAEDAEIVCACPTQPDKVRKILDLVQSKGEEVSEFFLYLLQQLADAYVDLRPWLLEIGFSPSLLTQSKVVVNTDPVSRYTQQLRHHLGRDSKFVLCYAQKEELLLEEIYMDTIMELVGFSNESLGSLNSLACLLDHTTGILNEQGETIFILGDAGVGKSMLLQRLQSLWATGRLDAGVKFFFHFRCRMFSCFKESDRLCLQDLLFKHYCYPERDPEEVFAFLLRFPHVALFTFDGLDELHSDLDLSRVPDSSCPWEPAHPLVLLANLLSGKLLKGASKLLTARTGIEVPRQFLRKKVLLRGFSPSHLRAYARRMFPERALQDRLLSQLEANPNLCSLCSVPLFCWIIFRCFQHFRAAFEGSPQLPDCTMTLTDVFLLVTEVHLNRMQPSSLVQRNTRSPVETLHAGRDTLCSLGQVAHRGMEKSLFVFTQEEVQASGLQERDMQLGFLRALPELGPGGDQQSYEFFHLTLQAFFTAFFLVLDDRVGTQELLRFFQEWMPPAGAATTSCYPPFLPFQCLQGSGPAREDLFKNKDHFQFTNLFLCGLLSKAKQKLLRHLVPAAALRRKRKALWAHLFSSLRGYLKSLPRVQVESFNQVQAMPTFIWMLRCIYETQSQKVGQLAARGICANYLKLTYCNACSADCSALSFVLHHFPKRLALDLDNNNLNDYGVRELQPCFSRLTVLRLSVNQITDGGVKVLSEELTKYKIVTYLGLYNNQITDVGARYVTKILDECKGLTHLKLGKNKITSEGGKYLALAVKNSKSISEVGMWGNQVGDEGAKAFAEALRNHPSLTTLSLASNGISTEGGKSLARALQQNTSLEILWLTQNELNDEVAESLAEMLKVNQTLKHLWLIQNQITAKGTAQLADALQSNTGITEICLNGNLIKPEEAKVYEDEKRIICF
In words: NOD1 signaling inhibitors, SAR follow-up, revised (AID 2333). It counts as functional.

The test system of assay [4] is HEK293. In words: cells. Conditions: Homo sapiens.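 Note: cells exposed to compound for 14 hours overnight before viability readout.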
Assay [5] addresses Tumor necrosis factor (Homo sapiens, UniProt P01375). In words: TNFa-triggered NF-kB activation inhibitors, SAR follow-up, cell-based, revised (AID 2337). It counts as functional.
Assay [6] addresses T2, Phospholipase D1 (Homo sapiens, UniProt Q13393).
T2 sequence (Q13393 whole entry): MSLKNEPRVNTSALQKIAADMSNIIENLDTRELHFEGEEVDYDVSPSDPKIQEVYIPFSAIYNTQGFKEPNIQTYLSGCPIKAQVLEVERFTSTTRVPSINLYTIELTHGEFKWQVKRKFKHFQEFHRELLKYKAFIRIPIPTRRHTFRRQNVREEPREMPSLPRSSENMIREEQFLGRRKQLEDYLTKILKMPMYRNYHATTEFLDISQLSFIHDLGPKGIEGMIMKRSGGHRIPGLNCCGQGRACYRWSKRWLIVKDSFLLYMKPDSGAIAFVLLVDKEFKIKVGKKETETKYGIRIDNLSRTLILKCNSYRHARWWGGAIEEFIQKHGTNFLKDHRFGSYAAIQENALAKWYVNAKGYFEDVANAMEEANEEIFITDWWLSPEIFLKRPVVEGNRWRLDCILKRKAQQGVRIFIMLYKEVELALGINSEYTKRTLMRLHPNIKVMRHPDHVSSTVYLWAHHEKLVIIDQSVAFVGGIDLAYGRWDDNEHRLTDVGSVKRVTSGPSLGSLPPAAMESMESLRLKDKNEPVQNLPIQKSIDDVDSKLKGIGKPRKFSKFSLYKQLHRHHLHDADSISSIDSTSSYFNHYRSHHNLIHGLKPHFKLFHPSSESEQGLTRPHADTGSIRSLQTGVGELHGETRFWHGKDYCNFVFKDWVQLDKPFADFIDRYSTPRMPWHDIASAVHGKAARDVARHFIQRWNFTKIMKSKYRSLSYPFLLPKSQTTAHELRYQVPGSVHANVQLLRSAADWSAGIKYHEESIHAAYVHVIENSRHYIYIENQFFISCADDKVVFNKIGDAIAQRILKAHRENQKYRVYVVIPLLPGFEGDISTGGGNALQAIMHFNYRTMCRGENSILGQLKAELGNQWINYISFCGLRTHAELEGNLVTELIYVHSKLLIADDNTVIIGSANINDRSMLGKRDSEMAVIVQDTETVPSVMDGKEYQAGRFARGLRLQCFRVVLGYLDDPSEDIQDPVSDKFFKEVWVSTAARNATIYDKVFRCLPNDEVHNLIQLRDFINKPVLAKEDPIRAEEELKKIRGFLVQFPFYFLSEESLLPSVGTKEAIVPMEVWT
Nature of the assay: PLD1 inhibitor potency in cells, dose response (AID 602151).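 Note: cellular PLD1 assay in Calu-1 cells stimulated with PMA.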 The format is functional.

Assay [7] concerns the target Phospholipase D2 (Homo sapiens, UniProt O14939). Nature of the assay: PLD2 inhibitor potency in cells, dose response (AID 602147).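 Note: cellular assay in HEK293 cells overexpressing GFP-tagged PLD2.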 The format is functional.

Chain of Phospholipase D2 (O14939 whole entry): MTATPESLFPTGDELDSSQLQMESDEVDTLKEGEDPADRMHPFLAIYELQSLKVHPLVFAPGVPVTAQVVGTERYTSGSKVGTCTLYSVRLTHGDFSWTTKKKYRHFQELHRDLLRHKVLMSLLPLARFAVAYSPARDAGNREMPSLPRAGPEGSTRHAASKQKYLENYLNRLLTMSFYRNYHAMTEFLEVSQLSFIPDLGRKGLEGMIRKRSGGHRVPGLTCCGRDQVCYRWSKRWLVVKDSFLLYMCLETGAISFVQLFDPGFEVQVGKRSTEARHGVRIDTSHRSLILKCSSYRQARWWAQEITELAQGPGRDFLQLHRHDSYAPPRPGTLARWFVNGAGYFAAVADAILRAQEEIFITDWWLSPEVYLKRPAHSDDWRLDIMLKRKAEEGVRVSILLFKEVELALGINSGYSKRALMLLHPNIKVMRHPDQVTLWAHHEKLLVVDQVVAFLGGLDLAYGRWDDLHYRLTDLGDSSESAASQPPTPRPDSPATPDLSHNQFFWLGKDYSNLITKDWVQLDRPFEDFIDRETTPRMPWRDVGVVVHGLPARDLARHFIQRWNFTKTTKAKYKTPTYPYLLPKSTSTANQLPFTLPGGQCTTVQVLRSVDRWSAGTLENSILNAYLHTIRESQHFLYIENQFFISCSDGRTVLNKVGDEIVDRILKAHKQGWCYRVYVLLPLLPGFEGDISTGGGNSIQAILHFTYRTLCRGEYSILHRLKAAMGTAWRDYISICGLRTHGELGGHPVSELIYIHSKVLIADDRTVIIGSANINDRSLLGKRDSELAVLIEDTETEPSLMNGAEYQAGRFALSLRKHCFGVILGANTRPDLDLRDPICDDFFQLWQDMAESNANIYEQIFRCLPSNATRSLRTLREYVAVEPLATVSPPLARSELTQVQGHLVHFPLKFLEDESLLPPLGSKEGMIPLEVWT
Chain of Tumor necrosis factor (P01375 whole entry): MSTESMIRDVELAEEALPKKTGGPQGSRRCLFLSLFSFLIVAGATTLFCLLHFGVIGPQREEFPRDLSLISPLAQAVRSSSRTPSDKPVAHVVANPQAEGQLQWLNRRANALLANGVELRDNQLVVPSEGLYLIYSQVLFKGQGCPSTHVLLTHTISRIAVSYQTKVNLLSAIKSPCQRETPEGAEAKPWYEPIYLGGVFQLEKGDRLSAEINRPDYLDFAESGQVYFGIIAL

Turning to `COc1cccc(C(=O)Nc2ccc(NC(=O)C3CC3)cn2)c1`, the half-maximal activity concentration (AC50) in assay [1] is 122 µM (active).

As to `CCc1ccc(-c2cn3nc(-c4ccccc4)cnc3n2)cc1`, the AC50 in assay [1] was 241 µM (active).

Take `Cc1ccc(C(=O)N(CCN2CCCCC2)CC2CCCN(C3CCCC3)C2)s1` (stereo not drawn): in assay [1], the AC50 is 72.6 µM (active).

With `C[C@H](NC(=O)c1[nH]cnc1C(=O)NCCCCCNC(=O)OC(C)(C)C)c1ccccc1`, the half-maximal activity concentration (AC50) in assay [2] is 63.8 µM (active).

With `CC(=O)N1c2ccc(S(=O)(=O)N3CCN(c4ccc(Cl)cc4)CC3)cc2CC1C` (stereo not drawn), the half-inhibitory concentration (IC50) in assay [3] was 2.57 µM (active); in assay [4], > 20 µM (inactive); in assay [5], 5.76 µM (active).

For `C[C@@H](CN1CC=C(n2c(=O)[nH]c3ccccc32)CC1)NC(=O)c1ccc2ccccc2c1`, the concentration for half-maximal inhibition (IC50) is 0.05 µM (active) in assay [6] and 2.25 µM (active) in assay [7].

For `C[C@@H](CN1CCC(n2c(=O)[nH]c3cc(I)ccc32)CC1)NC(=O)c1ccc2ccccc2c1`, the IC50 was 0.028 µM (active) in assay [6] and 6.37 µM (active) in assay [7].

As to `C[C@@H](CN1CCC(n2c(=O)[nH]c3ccccc32)CC1)NC(=O)c1cc2ccccc2s1`, the results for the half-inhibitory concentration (IC50) in assay [6] and in assay [7] were 0.002 µM (active) and 0.22 µM (active), respectively.
